Literature values as cited in US6867034B2, “Methods of screening novel agents for use in cancer therapy and prevention” (The Curators of The University of Missouri, priority 2000, dated 2005).

Tests used:
[1] = test system: repB; details: after cisplatin treatment, versus basal levels
[2] = test system: Dictyostelium cells; details: 300 μM cisplatin
[3] = test system: repD; details: after cisplatin treatment, versus basal levels

For `N.N.[Cl][Pt][Cl]` [cisplatin], which “levels of repB mRNA” value [1] is on record?
Its value is “rapidly increase from basal levels”.

What about the “viability of the cells” value [2] of the same molecule?
Its value is “reduced by three orders of magnitude”.

And the “levels of repD mRNA” value [3]?
The value was “rapidly increase from basal levels”.
